Source: patent US20230226199A1, “DENDRIMER COMPOSITIONS AND METHODS FOR DRUG DELIVERY” (Ashvattha Therapeutics, Inc., priority 2019, published 2023)

Target: JAK1 (Homo sapiens, UniProt P23458)
Assay: JAK1 binding affinity
Text: An exemplary conjugation of JAK1 inhibitor Target-007 to a dendrimer is shown below (Structure XXXIII). JAK1 binding affinity of Target-007 is about […] and the binding affinity of dendrimer conjugated Target-007 is about […].

JAK1, sequence (P23458 whole entry, species assumed): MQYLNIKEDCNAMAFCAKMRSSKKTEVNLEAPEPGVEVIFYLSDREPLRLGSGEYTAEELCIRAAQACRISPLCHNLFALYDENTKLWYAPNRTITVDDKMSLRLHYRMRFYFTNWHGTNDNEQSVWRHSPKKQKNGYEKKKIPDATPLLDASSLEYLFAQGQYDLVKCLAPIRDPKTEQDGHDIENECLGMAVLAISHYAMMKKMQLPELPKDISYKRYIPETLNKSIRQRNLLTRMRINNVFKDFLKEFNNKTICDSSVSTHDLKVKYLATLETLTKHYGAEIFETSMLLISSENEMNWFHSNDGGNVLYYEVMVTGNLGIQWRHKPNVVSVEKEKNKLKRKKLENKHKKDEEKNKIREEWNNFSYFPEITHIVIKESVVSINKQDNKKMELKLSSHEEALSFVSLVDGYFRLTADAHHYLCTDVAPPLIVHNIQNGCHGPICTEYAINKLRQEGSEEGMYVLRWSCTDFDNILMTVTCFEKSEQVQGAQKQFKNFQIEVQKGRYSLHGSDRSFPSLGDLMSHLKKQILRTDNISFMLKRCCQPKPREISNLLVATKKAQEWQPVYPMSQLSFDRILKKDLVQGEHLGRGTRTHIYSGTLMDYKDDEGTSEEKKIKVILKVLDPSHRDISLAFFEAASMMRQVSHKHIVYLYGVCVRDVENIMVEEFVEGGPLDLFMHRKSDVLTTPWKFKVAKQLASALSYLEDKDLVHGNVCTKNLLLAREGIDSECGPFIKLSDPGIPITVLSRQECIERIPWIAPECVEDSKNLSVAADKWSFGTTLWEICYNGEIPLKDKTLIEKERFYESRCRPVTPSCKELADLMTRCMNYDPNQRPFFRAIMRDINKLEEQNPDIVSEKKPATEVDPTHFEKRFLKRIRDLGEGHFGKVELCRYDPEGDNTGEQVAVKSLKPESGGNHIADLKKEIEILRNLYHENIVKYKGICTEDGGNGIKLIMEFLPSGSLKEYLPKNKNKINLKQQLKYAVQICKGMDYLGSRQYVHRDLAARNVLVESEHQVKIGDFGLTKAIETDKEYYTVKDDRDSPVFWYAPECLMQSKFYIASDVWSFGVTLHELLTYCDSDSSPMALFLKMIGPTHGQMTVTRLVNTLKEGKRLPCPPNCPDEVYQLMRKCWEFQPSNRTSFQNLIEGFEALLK

Kd: ~1 nM
Structure (SMILES): COc1cc(-c2nc3c(NCC4CCNCC4)c(Cl)cnc3[nH]2)c(F)cc1OCCOCCOCCOCCN=[N+]=[N-] [Target-007]
